We go through 86 compounds from ChEMBL document CHEMBL2218064, “Structure-activity relationship data for chemical series of antagonists of the P2X7 receptor (Supplementary Bioactivity Data for publication CHEMBL1157114)”.

For the experiment, the target named is T1, P2X purinoceptor 7 (Homo sapiens, UniProt Q99572).
T1 sequence (Q99572 whole entry): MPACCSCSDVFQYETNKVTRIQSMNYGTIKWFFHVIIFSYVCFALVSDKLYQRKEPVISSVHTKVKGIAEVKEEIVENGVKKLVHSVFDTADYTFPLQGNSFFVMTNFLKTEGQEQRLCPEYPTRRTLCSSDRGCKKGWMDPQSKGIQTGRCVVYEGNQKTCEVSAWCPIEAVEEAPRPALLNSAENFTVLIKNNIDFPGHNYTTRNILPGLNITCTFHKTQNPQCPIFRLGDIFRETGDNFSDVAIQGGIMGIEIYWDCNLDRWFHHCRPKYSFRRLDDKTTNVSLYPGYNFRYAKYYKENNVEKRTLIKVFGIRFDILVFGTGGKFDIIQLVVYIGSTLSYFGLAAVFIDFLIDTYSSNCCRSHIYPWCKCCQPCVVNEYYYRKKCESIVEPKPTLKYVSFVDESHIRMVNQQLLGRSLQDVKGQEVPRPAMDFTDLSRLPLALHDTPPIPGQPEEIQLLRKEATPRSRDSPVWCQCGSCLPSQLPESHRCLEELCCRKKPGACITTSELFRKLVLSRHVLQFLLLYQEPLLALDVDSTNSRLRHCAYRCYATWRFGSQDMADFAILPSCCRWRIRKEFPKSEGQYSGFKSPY
The experiment can be described thus: SUPPLEMENTARY: Inhibition of human P2X7 receptor assessed as inhibition of ethidium bromide accumulation. Same assay as CHEMBL1103860.

The structures appear in SMILES notation.

What is called IC50 is the midpoint of a concentration-inhibition curve. As for `Cc1c(N2CCCC2)cccc1N1CCN(Cc2ccc(F)cc2Cl)C(=O)C1=O`, the concentration for half-maximal inhibition (IC50) is 25.1 nM.
Regarding `Cc1cccc(C)c1N1CCN(Cc2cccc(Cl)c2Cl)C(=O)C1=O`, the IC50 was 6.31 nM.
Take `Cc1cccc(C)c1N1CCN(Cc2ccc(F)c(F)c2F)C(=O)C1=O`: the 50% inhibitory concentration (IC50) is 39.8 nM.
As to `Cc1cccc(C)c1N1CCN(Cc2ccc(F)cc2C(F)(F)F)C(=O)C1=O`, the IC50 was 7.94 nM.
The value for `Cc1cccc(C)c1N1CCN(Cc2ccc(Cl)cc2Cl)C(=O)C1=O` was 1.58 nM.
For the compound `Cc1c(Cl)cccc1N1CCN(Cc2ccc(F)cc2Cl)C(=O)C1=O`, the half-maximal inhibitory concentration (IC50) is 12.6 nM.
In the case of `O=C(c1cccc(C(F)(F)F)c1F)N1CCN(c2ccc(F)cc2Cl)C(=O)C1` it was 63.1 nM.
In the case of `Cc1cc(Br)ccc1N1CCN(Cc2ccc(F)cc2Cl)C(=O)C1=O`, the concentration for half-maximal inhibition (IC50) was 79.4 nM.
The value for `CN1C(=O)N(c2nccc(C(F)(F)F)n2)C[C@H]1C(=O)NCc1cccc(C(F)(F)F)c1Cl` was 15.8 nM; that for `CN1C(=O)N(c2nccc(C(F)(F)F)n2)C[C@H]1C(=O)NCc1ccc(Cl)cc1Cl` was 31.6 nM; that for `CN1C(=O)N(c2nccc(C(F)(F)F)n2)C[C@H]1C(=O)NCc1ccc(F)cc1Cl` was 100 nM.
The value for `Cc1c(N2CCN(Cc3ccc(F)cc3Cl)C(=O)C2=O)cccc1-n1ccnc1` was 50.1 nM; that for `Cc1ccc(N2C[C@@H](C(=O)NCc3cccc(C(F)(F)F)c3Cl)N(C)C2=O)c(C)n1` was 7.94 nM; that for `Cc1ccc(N2C[C@@H](C(=O)NCc3ccc(Cl)cc3Cl)N(C)C2=O)c(C)n1` was 15.8 nM.
Turning to `Cc1ccc(N2C[C@@H](C(=O)NCc3ccc(F)cc3Cl)N(C)C2=O)c(C)n1`, the IC50 was 63.1 nM.
As for `COc1c(N2CCOCC2)cccc1N1CCN(Cc2ccc(F)cc2Cl)C(=O)C1=O`, the concentration for half-maximal inhibition (IC50) was 25.1 nM.
For the compound `Cc1cccc(C(=O)N2CCN(c3ccc(F)cc3Cl)C(=O)C2)c1Cl`, the IC50 was 31.6 nM.
The value for `CCN(CC)c1ccc(N2CCN(Cc3ccc(F)cc3Cl)C(=O)C2=O)c(C)c1` was 12.6 nM; that for `COc1cccc(OC)c1N1CCN(Cc2ccc(F)cc2Cl)C(=O)C1=O` was 20 nM; that for `O=C(c1ccc(Cl)cc1F)N1CCN(c2ccc(F)cc2Cl)C(=O)C1` was 63.1 nM.
In the case of `O=C(c1c(Cl)cccc1Cl)N1CCN(c2ccc(F)cc2Cl)C(=O)C1` it was 63.1 nM; in that of `CC(C)Oc1cc(F)ccc1N1CCN(C(=O)c2cccc(C(F)(F)F)c2Cl)CC1=O`, 10 nM; in that of `CC(C)Oc1cc(F)ccc1N1CCN(C(=O)c2cccc(Cl)c2Cl)CC1=O`, 15.8 nM.
The value for `CN1C(=O)N(c2cn(C)cn2)C[C@H]1C(=O)NCc1ccc(Cl)cc1Cl` was 7.94 nM; that for `C[C@@H]1CN(Cc2ccc(Cl)cc2Cl)C(=O)C(=O)N1c1ccccc1` was 25.1 nM.
For the compound `O=C(c1ccc(F)c(F)c1Cl)N1CCN(c2ccc(F)cc2Cl)C(=O)C1`, the half-maximal inhibitory concentration (IC50) is 39.8 nM.
On to `O=C(c1cccc(F)c1F)N1CCN(c2ccc(F)cc2Cl)C(=O)C1`, for which the IC50 was 316 nM.
The value for `O=C(c1c(F)ccc(F)c1Cl)N1CCN(c2ccc(F)cc2Cl)C(=O)C1` was 631 nM; that for `O=C(c1cccc(Cl)c1F)N1CCN(c2ccc(F)cc2Cl)C(=O)C1` was 158 nM.
The value for `O=C(c1ccc(F)c(Cl)c1F)N1CCN(c2ccc(F)cc2Cl)C(=O)C1` was 100 nM; that for `CN1CCN(C(=O)c2cccc(C(F)(F)F)c2Cl)CC1=O` was 63.1 nM.
On to `CN1CCN(C(=O)c2ccc(Cl)cc2Cl)CC1=O`, for which the concentration for half-maximal inhibition (IC50) is 251 nM.
In the case of `CN1C(=O)N(c2cncn2C)C[C@H]1C(=O)NCc1ccc(Cl)cc1Cl`, the IC50 is 10 nM.
In the case of `CN1C(=O)N(c2cncn2C)C[C@H]1C(=O)NCc1cccc(C(F)(F)F)c1Cl` it was 5.01 nM; in that of `CN1CCN(C(=O)c2ccc(F)cc2Cl)CC1=O`, 501 nM; in that of `N#Cc1cc(F)ccc1N1CCN(C(=O)c2cccc(Cl)c2Cl)CC1=O`, 3.98 nM.
In the case of `CN1C(=O)N(c2cc(C(F)(F)F)ncn2)C[C@H]1C(=O)NCc1ccc(F)c(F)c1Cl` it was 50.1 nM; in that of `CN1C(=O)N(c2cc(C(F)(F)F)ncn2)C[C@H]1C(=O)NCc1ccc(Cl)cc1Cl`, 31.6 nM.
Consider `CN1C(=O)N(c2cc(C(F)(F)F)ncn2)C[C@H]1C(=O)NCc1cccc(C(F)(F)F)c1Cl`, for which the IC50 is 31.6 nM.
The value for `CC(C)CN1CCN(C(=O)c2cccc(Cl)c2Cl)CC1=O` was 50.1 nM; that for `O=C(c1ccc(F)cc1Cl)N1CCN(c2ccc(F)cc2Cl)C(=O)C1` was 251 nM.
The value for `Cc1cccc(C(=O)N2CCN(C)C(=O)C2)c1Cl` was 631 nM; that for `CCN1CCN(C(=O)c2cccc(C(F)(F)F)c2Cl)CC1=O` was 126 nM.
For `O=C1CN(C(=O)c2cccc(C(F)(F)F)c2Cl)CCN1CC(F)(F)F`, the half-inhibitory concentration (IC50) was 200 nM.
In the case of `CC(C)N1CCN(C(=O)c2cccc(C(F)(F)F)c2Cl)CC1=O` it was 100 nM.
Consider `COCCN1CCN(C(=O)c2cccc(C(F)(F)F)c2Cl)CC1=O`, for which the IC50 was 316 nM.
In the case of `COc1ccc(I)cc1N1CCN(C(=O)c2cccc(C(F)(F)F)c2Cl)CC1=O` it was 12.6 nM; in that of `CC(C)CN1CCN(C(=O)c2cccc(C(F)(F)F)c2Cl)CC1=O`, 200 nM.
On to `CN1C(=O)N(c2ccc(F)nc2)C[C@H]1C(=O)NCc1ccc(Cl)cc1Cl`, for which the IC50 is 20 nM.
The value for `CN1C(=O)N(c2ccc(F)nc2)C[C@H]1C(=O)NCc1cccc(C(F)(F)F)c1Cl` was 7.94 nM; that for `Cc1c(Br)cccc1N1CCN(C(=O)c2cccc(C(F)(F)F)c2Cl)CC1=O` was 6.31 nM.
Consider `O=C1CN(C(=O)c2cccc(C(F)(F)F)c2Cl)CCN1CC1CCCCC1`, for which the half-maximal inhibitory concentration (IC50) is 79.4 nM.
The value for `CCC(CC)N1CCN(C(=O)c2cccc(C(F)(F)F)c2Cl)CC1=O` was 6.31 nM; that for `O=C1CN(C(=O)c2cccc(C(F)(F)F)c2Cl)CCN1CC1CC1` was 12.6 nM; that for `CCCN1CCN(C(=O)c2cccc(C(F)(F)F)c2Cl)CC1=O` was 50.1 nM.
The value for `O=C1CN(C(=O)c2cccc(C(F)(F)F)c2Cl)CCN1Cc1ccncc1` was 316 nM.
`CN1C[C@@H](C(=O)NCc2ccc(Cl)cc2Cl)N(CC(F)(F)F)C1=O`: the IC50 is 15.8 nM.
The value for `CCN1C(=O)N(C)C[C@H]1C(=O)NCc1ccc(Cl)cc1Cl` was 1.58 nM; that for `CCN1C(=O)N(C)C[C@H]1C(=O)NCc1cccc(C(F)(F)F)c1Cl` was 0.794 nM.
In the case of `CCN1C(=O)N(C)C[C@H]1C(=O)NCc1ccc(F)cc1Cl` it was 7.94 nM.
In the case of `COc1ccc(N2C[C@@H](C(=O)NCc3ccc(Cl)cc3Cl)N(C)C2=O)cn1` it was 15.8 nM; in that of `COc1ccc(N2C[C@@H](C(=O)NCc3cccc(C(F)(F)F)c3Cl)N(C)C2=O)cn1`, 7.94 nM.
`O=C(c1cccc(C(F)(F)F)c1Cl)N1CCn2ccnc2C1`: the IC50 was 100 nM.
In the case of `N#Cc1cc(F)ccc1N1CCN(C(=O)c2cccc(C(F)(F)F)c2Cl)CC1=O` it was 3.98 nM; in that of `O=C1CN(C(=O)c2cccc(C(F)(F)F)c2Cl)CCN1Cc1cccnc1`, 398 nM; in that of `CN1C(=O)N(c2cnccn2)C[C@H]1C(=O)NCc1cccc(C(F)(F)F)c1Cl`, 15.8 nM.
As for `CN1C(=O)N(c2cccnc2Cl)C[C@H]1C(=O)NCc1ccc(Cl)cc1Cl`, the IC50 is 5.01 nM.
Regarding `O=C1CN(C(=O)c2cccc(C(F)(F)F)c2Cl)CCN1Cc1ccccn1`, the IC50 was 158 nM.
The value for `O=C1CN(C(=O)c2cccc(C(F)(F)F)c2Cl)CCN1CC1CCC1` was 200 nM; that for `O=C(c1cccc(C(F)(F)F)c1Cl)N1CCN(C2CCCC2)C(=O)C1` was 158 nM; that for `O=C1CN(C(=O)c2cccc(C(F)(F)F)c2Cl)CCN1CC1CCCO1` (stereo unspecified) was 79.4 nM.
In the case of `CN1C(=O)NC[C@H]1C(=O)NCc1cccc(C(F)(F)F)c1F` it was 39.8 nM; in that of `Cc1c(CNC(=O)[C@@H]2CNC(=O)N2C)cccc1C(F)(F)F`, 2 nM; in that of `CN1C(=O)NC[C@H]1C(=O)NCc1ccc(Cl)c(C(F)(F)F)c1`, 158 nM.
For `CN1C(=O)N(c2cccnc2Cl)C[C@H]1C(=O)NCc1ccc(F)c(F)c1Cl`, the IC50 was 10 nM.
With `CN1C(=O)N(c2cccnc2Cl)C[C@H]1C(=O)NCc1cccc(C(F)(F)F)c1Cl`, the IC50 was 1.58 nM.
Take `CN1C(=O)NC[C@H]1C(=O)NCc1ccc(F)c(C(F)(F)F)c1`: the IC50 was 100 nM.
For `Cc1c(Cl)cccc1CNC(=O)[C@@H]1CNC(=O)N1C`, the concentration for half-maximal inhibition (IC50) was 20 nM.
The value for `Cc1cc(Cl)cc(Cl)c1CNC(=O)[C@@H]1CNC(=O)N1C` was 1.26 nM; that for `Cc1cc(Cl)ccc1CNC(=O)[C@@H]1CNC(=O)N1C` was 31.6 nM.
Regarding `CN1C(=O)N(c2ncc(F)cn2)C[C@H]1C(=O)NCc1ccc(Cl)cc1Cl`, the 50% inhibitory concentration (IC50) is 3.98 nM.
Consider `CCN1C(=O)NC[C@H]1C(=O)NCc1ccc(Cl)cc1Cl`, for which the IC50 was 12.6 nM.
On to `CCN1C(=O)NC[C@H]1C(=O)NCc1ccc(F)cc1Cl`, for which the half-inhibitory concentration (IC50) is 39.8 nM.
The value for `CCN1C(=O)NC[C@H]1C(=O)NCc1cccc(C(F)(F)F)c1Cl` was 3.98 nM; that for `Cc1c(Cl)cccc1CNC(=O)[C@@H]1CN(C)C(=O)N1C` was 6.31 nM; that for `CN1C[C@@H](C(=O)NCc2ccc(F)c(C(F)(F)F)c2)N(C)C1=O` was 50.1 nM.
